Source: patent US20100222349A1, “QUINOLINE DERIVATIVES USED TO TREAT INFLAMMATORY AND ALLERGIC DISEASES” (Glaxo Group Limited, priority 2007, published 2010)

How the values were obtained:
human H1 receptor = molecular target: T1, human H1 receptor (Homo sapiens, UniProt P35367); assay: Histamine H1 functional antagonist assay: determination of functional pKi values (FLIPR); format: cell-based; conditions: CHO cells expressing human H1 receptor, histamine at EC80, read-out: average pKi (pKb) at H1 (converted)
T1 construct: expressed in transfected cells
Experimental: The human H1 receptor is cloned using known procedures described in the literature [Biochem. Biophys. Res. Commun., 201(2):894 (1994)]. Chinese hamster ovary (CHO) cells stably expressing the human H1 receptor are generated according to known procedures described in the literature [Br. J. Pharmacol., 117(6):1071 (1996)]. The histamine H1 cell line is seeded into non-coated black-walled clear bottom 384-well tissue culture plates in alpha minimum essential medium (Gibco/Invitrogen, cat no. 22561-021), supplemented with 10′)/0 dialysed foetal calf serum (Gibco/Invitrogen cat no. 12480-021) and 2 mM L-glutamine (Gibco/Invitrogen cat no 25030-024) and is maintained overnight at 5% CO2, 37° C. Excess medium is removed from each well to leave 10 μl. 30 μl loading dye (250 μM Brilliant Black, 2 μM Fluo-4 diluted in Tyrodes buffer+probenecid (145 mM NaCl, 2.5 mM KCl, 10 mM HEPES, 10 mM D-glucose, 1.2 mM MgCl2, 1.5 mM CaCl2, 2.5 mM probenecid, pH adjusted to 7.40 with NaOH 1.0 M)) is added to each well and the plates are incubated for 60 min at 5% CO2, 37° C. 10 μl of test compound, diluted to the required concentration in Tyrodes buffer+probenecid (or 10 μl Tyrodes buffer+probenecid as a control) is added to each well and the plate is incubated for 30 min at 37° C., 5% CO2. The plates are then placed into a FLIPR™(Molecular Devices, UK) to monitor cell fluorescence (λex=488 nm, λEM=540 nm) in the manner described in Sullivan et al., (In: Lambert DG (ed.), Calcium Signaling Protocols, New Jersey: Humana Press, 1999, 125-136) before and after the addition of 10 μl histamine at a concentration that results in the final assay concentration of histamine being EC80. Functional antagonism is indicated by a suppression of histamine induced increase in fluorescence, as measured by the FLIPR™ system (Molecular Devices). By means of concentration effect curves, functional affinities are determined using standard pharmacological mathematical analysis.

histamine H3 receptor = molecular target: T2, histamine H3 receptor (Homo sapiens, UniProt Q9Y5N1); assay: Histamine H3 functional antagonist assay (GTPγS, membranes); format: biochemical; conditions: CHO K1 membranes, [35S]-GTPγS, histamine at EC80; read-out: average pKi (pKb) at H3 (converted)
T2 construct: expressed in transfected cells; host or cells: CHO K1 cells with pSwitch/pGeneH3 (GeneSwitch, mifepristone-induced), clone 3H3; membrane preparation
Experimental: The histamine H3 cDNA is isolated from its holding vector, pcDNA3.1 TOPO (InVitrogen), by restriction digestion of plasmid DNA with the enzymes BamH1 and Not-1 and is ligated into the inducible expression vector pGene (InVitrogen) digested with the same enzymes. The GeneSwitchTM system (a system where in transgene expression is switched off in the absence of an inducer and switched on in the presence of an inducer) is performed as described in U.S. Pat. Nos. 5,364,791; 5,874,534; and 5,935,934. Ligated DNA is transformed into competent DH5α E. coli host bacterial cells and is plated onto Luria Broth (LB) agar containing ZeocinTM (an antibiotic which allows the selection of cells expressing the sh ble gene which is present on pGene and pSwitch) at 50 μgml^-1. Colonies containing the re-ligated plasmid are identified by restriction analysis. DNA for transfection into mammalian cells is prepared from 250 ml cultures of the host bacterium containing the […]3 plasmid and is isolated using a DNA preparation kit (Qiagen Midi-Prep) as per manufacturers guidelines (Qiagen). CHO K1 cells previously transfected with the pSwitch regulatory plasmid (InVitrogen) are seeded at 2×10^6 cells per T75 flask in Complete Medium, containing Hams F12 (GIBCOBRL, Life Technologies) medium supplemented with 10% v/v dialysed foetal bovine serum, L-glutamine, and hygromycin (100 μgml^-1), 24 h prior to use. Plasmid DNA is transfected into the cells using Lipofectamine plus according to the manufacturer's guidelines (InVitrogen). 48 h post transfection, cells are placed into complete medium supplemented with 500 μgml^-1 ZeocinTM. 10-14 days post selection, 10 nM Mifepristone (InVitrogen) is added to the culture medium to induce the expression of the receptor. 18 h post induction, cells are detached from the flask using ethylenediamine tetra-acetic acid (EDTA; 1:5000; InVitrogen), following several washes with PBS, pH 7.4 and are resuspended in Sorting Medium containing Minimum Essential Medium (MEM), without phenol red, and are supplemented with Earles salts and 3% Foetal Clone II (Hyclone). Approximately 1×10^7 cells are examined for receptor expression by staining with a rabbit polyclonal antibody, 4a, raised against the N-terminal domain of the histamine H3 receptor, are incubated on ice for 60 min, followed by two washes in sorting medium. Receptor bound antibody is detected by incubation of the cells for 60 min on ice with a goat anti rabbit antibody, conjugated with Alexa 488 fluorescence marker (Molecular Probes). Following two further washes with Sorting Medium, cells are filtered through a 50 μm FilconTM (BD Biosciences) and then are analysed on a FACS Vantage SE Flow Cytometer fitted with an Automatic Cell Deposition Unit. Control cells are non-induced cells treated in an analogous manner. Positively stained cells are sorted as single cells into 96-well plates, containing Complete Medium containing 500 μgml^-1 ZeocinTM and are allowed to expand before reanalysis for receptor expression via antibody and ligand binding studies. One clone, 3H3, is selected for membrane preparation. All steps of the protocol are carried out at 4° C. and with pre-cooled reagents. The cell pellet is resuspended in 10 volumes of homogenisation buffer (50 mM N-2-hydroxyethylpiperazine-N'-2-ethanesulfonic acid (HEPES), 1 mM ethylenediamine tetra-acetic acid (EDTA), pH 7.4 with KOH, supplemented with 10^-6 M leupeptin (acetyl-leucyl-leucyl-arginal; Sigma L2884), 25 μgml^-1 bacitracin (Sigma B0125), 1 mM phenylmethylsulfonyl fluoride (PMSF) and 2×10^-6 M pepstain A (Sigma)). The cells are then homogenised by 2×15 sec bursts in a 1 L glass Waring blender, followed by centrifugation at 500 g for 20 min. The supernatant is then spun at 48,000 g for 30 min. The pellet is resuspended in homogenisation buffer (4× the volume of the original cell pellet) by vortexing for 5 sec, followed by homogenisation in a Dounce homogeniser (10-15 strokes). […]

T2 sequence (Q9Y5N1 whole entry, species assumed): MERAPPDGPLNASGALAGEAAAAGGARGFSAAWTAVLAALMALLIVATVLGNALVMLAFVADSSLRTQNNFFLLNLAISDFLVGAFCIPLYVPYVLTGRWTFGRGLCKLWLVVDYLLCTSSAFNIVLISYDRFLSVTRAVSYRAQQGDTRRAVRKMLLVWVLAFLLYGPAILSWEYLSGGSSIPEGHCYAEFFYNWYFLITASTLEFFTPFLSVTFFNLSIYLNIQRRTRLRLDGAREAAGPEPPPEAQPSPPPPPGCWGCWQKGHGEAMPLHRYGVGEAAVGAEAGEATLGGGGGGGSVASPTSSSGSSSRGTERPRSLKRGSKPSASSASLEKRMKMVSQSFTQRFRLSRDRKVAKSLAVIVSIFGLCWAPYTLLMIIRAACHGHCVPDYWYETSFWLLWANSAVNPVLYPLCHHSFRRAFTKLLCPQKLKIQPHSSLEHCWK
T1 sequence (P35367 whole entry): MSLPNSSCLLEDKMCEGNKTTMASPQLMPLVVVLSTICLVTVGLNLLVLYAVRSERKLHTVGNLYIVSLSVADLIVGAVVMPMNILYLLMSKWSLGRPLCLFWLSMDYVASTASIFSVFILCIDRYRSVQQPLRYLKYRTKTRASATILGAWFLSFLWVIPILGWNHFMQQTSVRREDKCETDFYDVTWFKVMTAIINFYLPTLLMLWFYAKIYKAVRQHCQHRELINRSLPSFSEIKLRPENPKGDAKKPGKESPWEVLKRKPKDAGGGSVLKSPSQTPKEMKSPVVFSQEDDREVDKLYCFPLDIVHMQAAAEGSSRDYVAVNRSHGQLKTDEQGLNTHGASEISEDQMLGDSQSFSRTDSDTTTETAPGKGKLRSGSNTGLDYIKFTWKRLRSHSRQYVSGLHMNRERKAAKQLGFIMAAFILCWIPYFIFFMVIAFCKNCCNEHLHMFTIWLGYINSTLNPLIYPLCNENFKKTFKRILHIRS

SMILES | Ki (human H1 receptor) [nM] | Ki (histamine H3 receptor) [nM]
CCCCc1cc(OC2CCN(CCNC(=O)CCC)CC2)c2ncccc2c1 [Example 74, N-(2-{4-[(6-butyl-8-quinolinyl)oxy]-1-piperidinyl}ethyl) butanamide] | < 10 | > 316
CCCCCCc1cc(OC2CCN(C[C@H]3CC[C@H](C(=O)NCc4ccc(C)cc4)CC3)CC2)c2ncccc2c1 [Example 49, trans-4-({4-[(6-hexyl-8-quinolinyl)oxy]-1-piperidinyl}methyl)-N-[(4-methylphenyl)methyl]cyclohexane carboxamide] | < 100 | > 316
CCCCc1cc(OC2CCN(CCCCC(=O)NCCC)CC2)c2ncccc2c1 [Example 28, 5-{4-[(6-butyl-8-quinolinyl)oxy]-1-piperidinyl}-N-propylpentanamide] | < 10 | > 3160
CCCCCCc1cc(OC2CCN(C[C@H]3CC[C@H](C(=O)NCCC)CC3)CC2)c2ncccc2c1 [Example 55, trans-4-({4-[(6-hexyl-8-quinolinyl)oxy]-1-piperidinyl}methyl)-N-propylcyclohexane carboxamide] | < 100 | > 316
CCCCCCc1cc(OC2CCN(C[C@H]3CC[C@H](C(=O)N4CCOCC4)CC3)CC2)c2ncccc2c1 [Example 57, 6-hexyl-8-[(1-{[trans-4-(4-morpholinylcarbonyl)cyclohexyl]methyl}-4-piperidinyl)oxy]quinoline] | < 100 | > 316
CCCCc1cc(OC2CCN(CCC(=O)NCCCOC)CC2)c2ncccc2c1 [Example 16, 3-{4-[(6-butyl-8-quinolinyl)oxy]-1-piperidinyl}-N-[3-(methyloxy)propyl] propanamide] | < 10 | > 3160
CCCCc1cc(O[C@@H]2CCN(CCC(=O)NC(C)(C)C)C2)c2ncccc2c1 [Example 36, 3-{(3R)-3-[(6-butyl-8-quinolinyl)oxy]-1-pyrrolidinyl}-N-(1,1-dimethylethyl) propanamide] | < 10 | > 316
CCCCc1cc(OC2CCN(CCCCNC(=O)CCOC)CC2)c2ncccc2c1 [Example 85, N-(4-{4-[(6-butyl-8-quinolinyl)oxy]-1-piperidinyl}butyl)-3-(methyloxy) propanamide] | < 10 | > 316
CCCCc1cc(OC2CCN(CCCCCNC(=O)CC)CC2)c2ncccc2c1 [Example 77, N-(5-{4-[(6-butyl-8-quinolinyl)oxy]-1-piperidinyl}pentyl) propanamide] | < 10 | > 316
CCCCc1cc(OC2CCN(CCNC(=O)CC)CC2)c2ncccc2c1 [Example 73, N-(2-{4-[(6-butyl-8-quinolinyl)oxy]-1-piperidinyl}ethyl) propanamide] | < 10 | > 316
CCCCc1cc(OC2CCN(CCCC(=O)NC(C)(C)C)CC2)c2ncccc2c1 [Example 6, 4-{4-[(6-Butyl-8-quinolinyl)oxy]-1-piperidinyl}-N-(1,1-dimethylethyl)butanamide] | < 10 | > 316
CCCCCCc1cc(OC2CCN(C[C@H]3CC[C@H](C(=O)NCC(C)(C)C)CC3)CC2)c2ncccc2c1 [Example 52, trans-N-(2,2-dimethylpropyl)-4-({4-[(6-hexyl-8-quinolinyl)oxy]-1-piperidinyl}methyl)cyclohexane carboxamide] | < 100 | > 316
CCCCc1cc(OC2CCN(CCNC(=O)CCOC)CC2)c2ncccc2c1 [Example 80, N-(2-{4-[(6-butyl-8-quinolinyl)oxy]-1-piperidinyl}ethyl)-3-(methyloxy) propanamide] | < 10 | > 316
CCCCc1cc(OC2CCN(CC(=O)NCCCOC)CC2)c2ncccc2c1 [Example 8, 2-{4-[(6-butyl-8-quinolinyl)oxy]-1-piperidinyl}-N-[3-(methyloxy)propyl] acetamide] | < 100 | > 3160
CCCCc1cc(OC2CCN(CCCNC(=O)C(C)(C)C)CC2)c2ncccc2c1 [Example 69, N-(3-{4-[(6-butyl-8-quinolinyl)oxy]-1-piperidinyl}propyl)-2,2-dimethyl propanamide] | < 10 | > 316
CCCCc1cc(OC2CCN(CCCNC(=O)CCOC)CC2)c2ncccc2c1 [Example 82, N-(3-{4-[(6-butyl-8-quinolinyl)oxy]-1-piperidinyl}propyl)-3-(methyloxy) propanamide] | < 10 | > 316
CCCCc1cc(O[C@@H]2CCN(CCCC(=O)NC(C)(C)C)C2)c2ncccc2c1 [Example 37, 4-{(3R)-3-[(6-butyl-8-quinolinyl)oxy]-1-pyrrolidinyl}-N-(1,1-dimethylethyl) butanamide] | < 10 | > 316
CCCCc1cc(OC2CCN(CCCCC(=O)NCCCOC)CC2)c2ncccc2c1 [Example 26, 5-{4-[(6-butyl-8-quinolinyl)oxy]-1-piperidinyl}-N-[3-(methyloxy)propyl]pent-anamide] | < 100 | > 3160
CCCCCCc1cc(OC2CCN(C[C@H]3CC[C@H](C(=O)NCCCOC)CC3)CC2)c2ncccc2c1 [Example 58, trans-4-({4-[(6-hexyl-8-quinolinyl)oxy]-1-piperidinyl}methyl)-N-[3-(methyloxy)propyl]cyclohexane carboxamide] | < 100 | > 316
CCCCc1cc(OC2CCN(CC(=O)NCCC)CC2)c2ncccc2c1 [Example 10, 2-{4-[(6-butyl-8-quinolinyl)oxy]-1-piperidinyl}-N-propylacetamide] | > 1000 | > 316
CCCCc1cc(OC2CCN(CCCCC(=O)N3CCCCC3)CC2)c2ncccc2c1 [Example 31, 6-butyl-8-({1-[5-oxo-5-(1-piperidinyl)pentyl]-4-piperidinyl}oxy) quinoline] | < 10 | > 3160
CCCCc1cc(OC2CCN(CCCCC(=O)NC(C)C)CC2)c2ncccc2c1 [Example 32, 5-{4-[(6-butyl-8-quinolinyl)oxy]-1-piperidinyl}-N-(1-methylethyl) pentanamide] | < 10 | 
